From patent US8497385B2, “Bryostatin analogues, synthetic methods and uses” (The Board of Trustees of the Leland Stanford Junior …, priority 2007, dated 2013)
Where two headings read alike, the source gives them in different places.

Key:
[1] = molecular target: rat brain PKC isozyme mixture; assay: Protein Kinase C (Isozyme Mix) Assay; assay type: binding; conditions: for Ki: rat brain PKC isozyme mixture, read-out: Binding Affinity
PKCδ-C1B = PKCδ-C1B (Homo sapiens (Human), UniProt Q05655); assay: PKCδ-C1B Assay; assay type: binding
Sequence of PKCδ-C1B (Q05655 whole entry, looked up): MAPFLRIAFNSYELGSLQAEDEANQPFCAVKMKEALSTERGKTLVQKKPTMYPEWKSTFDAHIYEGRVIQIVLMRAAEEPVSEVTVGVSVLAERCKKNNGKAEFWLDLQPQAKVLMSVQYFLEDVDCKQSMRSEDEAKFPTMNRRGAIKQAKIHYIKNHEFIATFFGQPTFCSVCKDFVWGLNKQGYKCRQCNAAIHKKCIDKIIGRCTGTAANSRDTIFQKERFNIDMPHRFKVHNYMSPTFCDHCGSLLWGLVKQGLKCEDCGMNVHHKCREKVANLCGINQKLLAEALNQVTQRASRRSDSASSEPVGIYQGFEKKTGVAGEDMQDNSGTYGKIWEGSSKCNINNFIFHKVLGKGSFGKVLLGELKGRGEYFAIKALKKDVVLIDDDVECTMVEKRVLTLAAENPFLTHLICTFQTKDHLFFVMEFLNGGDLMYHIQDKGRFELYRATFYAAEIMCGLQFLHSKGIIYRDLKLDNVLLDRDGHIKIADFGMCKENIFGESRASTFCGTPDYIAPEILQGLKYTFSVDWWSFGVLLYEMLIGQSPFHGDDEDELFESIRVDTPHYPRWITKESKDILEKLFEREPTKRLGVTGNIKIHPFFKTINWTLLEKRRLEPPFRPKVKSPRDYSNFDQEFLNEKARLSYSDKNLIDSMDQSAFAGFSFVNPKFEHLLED

P388 cell line = assay: P388 Murine Lymphocytic Leukemia Cell Assay; assay type: cell-based; conditions: 5 days incubation, MTT
Method: Cells from a P388 cell line (CellGate, Inc., Sunnyvale, Calif.) are grown in RPMI 1640 cell medium containing fetal calf serum (10%), L-glutamine, penicillin, streptomycin and are split twice weekly. All compounds are first diluted with DMSO. Later serial dilutions are done with a phosphate buffer solution (HYQ DPBS modified phosphate buffered saline). All dilutions are done in glass vials and the final DMSO concentration is always below 0.5% by volume. Final two-fold dilutions are done in a 96 well plate using cell media so that each well contains 50 μL. All compounds are assayed in quadruplicate over 12 concentrations. Cell concentration is measured using a hemacytometer and the final cell concentration is adjusted to 1×10^4 cells/mL with cell medium. The resulting solution of cells (50 μL) is then added to each well and the plates are incubated for 5 days in a 37° C., 5% CO2, humidified incubator (Sanyo CO2 incubator). MTT solution (3-[4,5-dimethylthiazol-2-yl]-2,5-diphenyltetrazolium bromide, 10 μL) is then added to each well and the plates are re-incubated under identical conditions for 2 h. To each well is then added acidified isopropanol (150 μL of i-PrOH solution containing 0.05 N HCl) and mixed thoroughly. The plates are then scanned at 595 nm and the absorbances are read (Wallac Victor 1420 Multilabel Counter). The resulting data is then analyzed to determine an ED50 value using the Prism software package (GraphPad).

**Q.** For `CCCCCCCC(=O)O[C@H]1/C(=C/C(=O)OC)C[C@H]2C[C@H](CO)OC(=O)C[C@H](O)CCO[C@H](c3ccc(Br)cc3)C[C@@H]3CCO[C@H](/C=C/C(C)(C)[C@]1(O)O2)O3` [Formula 18C], which Ki [1] is on record?
**A.** Its Ki is 1.6 nM.

**Q.** Which Ki (PKCδ-C1B; competition with tritiated phorbol 12,13-dibutyrate) does the source give for `CCCCCCC(=O)OC1C(=CC(=O)OC)CC2CC(C(C)O)OC(=O)CC(O)CC3CCCC(CC4CCOC(C=CC(C)(C)C1(O)O2)O4)O3` (stereo not shown) [Formula 702.3] here?
**A.** The Ki was 35 nM.

**Q.** What about the “P388 Assay ED50” value (P388 cell line) of the same molecule?
**A.** The value was 38 nM.

**Q.** For `COC(=O)/C=C1\C[C@H]2C[C@H]([C@@H](C)O)OC(=O)C[C@H](O)C[C@@H]3CCC[C@H](C[C@@H]4CCO[C@H](/C=C/C(C)(C)[C@](O)(O2)[C@H]1OC(C)=O)O4)O3` [Formula 702.2], which Ki (PKCδ-C1B) is on record?
**A.** The Ki was 232 ± 11 nM.

**Q.** And the “P388 Assay ED50” value (P388 cell line)?
**A.** The value was 181 nM.

**Q.** For `CCCCCCCC(=O)O[C@H]1/C(=C/C(=O)OC)C[C@H]2C[C@H](CO)OC(=O)C[C@H](O)CCO[C@H](c3ccc(-c4ccccc4)cc3)C[C@@H]3CCO[C@H](/C=C/C(C)(C)[C@]1(O)O2)O3` [Formula 19B.1], which Ki [1] is on record?
**A.** The Ki was 3.1 nM.

**Q.** How did the Ki [1] turn out when `CCCCCC/C=C/c1ccc([C@@H]2C[C@@H]3CCO[C@H](/C=C/C(C)(C)[C@]4(O)O[C@@H](C/C(=C\C(=O)OC)[C@@H]4OC(=O)CCCCCCC)C[C@H](CO)OC(=O)C[C@H](O)CCO2)O3)cc1` [Formula 19B.3] was run?
**A.** The Ki was 4.6 nM.

**Q.** With `CCCC(=O)O[C@@H]1[C@@H](C)[C@@]2(O)[C@@H](C=C(CO)C[C@]3(O)C(=O)C(C)=C[C@@H]23)[C@@H]2C(C)(C)[C@]12OC(=O)CCC` [Phorbol dibutyrate, phorbol 12,13-dibutyrate, reference compound] as the molecule, how does the Kd ([1]; under identical conditions to the PKC isozyme mix assay, read-out: Kd of [H^3]-PDBu) read?
**A.** Its Kd is 1.55 nM.

**Q.** For `CCCCCCCC(=O)O[C@H]1/C(=C/C(=O)OC)C[C@H]2C[C@H](CO)OC(=O)C[C@H](O)CCO[C@H](c3ccccc3)C[C@@H]3CCO[C@H](/C=C/C(C)(C)[C@]1(O)O2)O3` [Formula 19B.0], which Ki [1] is on record?
**A.** The Ki was 2.3 nM.

**Q.** Which Ki [1] does the source give for `CCCCCCCC(=O)O[C@H]1/C(=C/C(=O)OC)C[C@H]2C[C@H](CO)OC(=O)C[C@H](O)CCO[C@H](c3ccc(CCCOCCOCC)cc3)C[C@@H]3CCO[C@H](/C=C/C(C)(C)[C@]1(O)O2)O3` [Formula 19B.2] here?
**A.** The Ki was 3.8 nM.
